Laboratory results published in PubChem BioAssay (NCI).
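Compound exposure: 48 hours, 5 concentrations, 96-well plates. GI50: concentration for 50% inhibition of growth. The concentration for full growth arrest is given as TGI.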

Columns and labels:
Experiment in all cases: NCI-60 cell line screen, 48 h
A498 renal = tested on: A498 renal
DLD-1 colon = tested on: DLD-1 colon
DMS 114 small cell lung = tested on: DMS 114 small cell lung
DMS 273 small cell lung = tested on: DMS 273 small cell lung
HCC-2998 colon = tested on: HCC-2998 colon
KM20L2 colon = tested on: KM20L2 colon
LXFL 529 NSCLC = tested on: LXFL 529 NSCLC
M19-MEL melanoma = tested on: M19-MEL melanoma
CAKI-1 renal = tested on: CAKI-1 renal
MDA-MB-231 breast = tested on: MDA-MB-231 breast
MDA-MB-435 = tested on: MDA-MB-435
PC-3 prostate = tested on: PC-3 prostate
NCI-H226 lung = tested on: NCI-H226 lung
OVCAR-4 ovarian = tested on: OVCAR-4 ovarian
T-47D breast = tested on: T-47D breast

CCCCCCCCCC/C=C/C=O
TGI (A498 renal): > 100 µM | TGI (DLD-1 colon): > 100 µM | TGI (DMS 114 small cell lung): > 100 µM | TGI (DMS 273 small cell lung): > 100 µM | TGI (HCC-2998 colon): > 100 µM | TGI (KM20L2 colon): > 100 µM | TGI (LXFL 529 NSCLC): > 100 µM | TGI (M19-MEL melanoma): > 100 µM

NCCCn1c2c(c3ccc([N+](=O)[O-])cc3c1=O)C(=O)c1cc(F)ccc1-2
GI50 (CAKI-1 renal): 0.0498 µM | TGI (CAKI-1 renal): 0.266 µM | GI50 (HCC-2998 colon): 0.0367 µM | TGI (HCC-2998 colon): 0.233 µM | GI50 (MDA-MB-231 breast): 0.422 µM | TGI (MDA-MB-231 breast): 1.24 µM | GI50 (MDA-MB-435): 0.0762 µM | TGI (MDA-MB-435): 0.923 µM | GI50 (PC-3 prostate): 0.0398 µM | TGI (PC-3 prostate): 1.63 µM

Cc1cc(C)c(NC(=O)/C=C/c2ccccc2)c(C)c1
TGI (HCC-2998 colon): > 100 µM | TGI (MDA-MB-435): > 100 µM | TGI (NCI-H226 lung): > 100 µM | TGI (OVCAR-4 ovarian): > 100 µM | TGI (PC-3 prostate): > 100 µM

CN1C(=O)CN2C(Cl)(Cl)C2(c2ccccc2)c2cc(Cl)ccc21 (stereo unspecified)
TGI (CAKI-1 renal): > 100 µM | TGI (DLD-1 colon): > 100 µM | TGI (DMS 114 small cell lung): > 100 µM | TGI (DMS 273 small cell lung): > 100 µM | TGI (HCC-2998 colon): > 100 µM | TGI (KM20L2 colon): > 100 µM | TGI (LXFL 529 NSCLC): > 100 µM | TGI (M19-MEL melanoma): > 100 µM | TGI (NCI-H226 lung): > 100 µM | TGI (OVCAR-4 ovarian): > 100 µM

O=C1/C(=C/c2ccc(Cl)cc2)N=C(c2ccccc2)N1/N=C/c1ccccc1O
TGI (CAKI-1 renal): 22.3 µM | TGI (MDA-MB-231 breast): 63.3 µM | TGI (MDA-MB-435): > 100 µM | TGI (NCI-H226 lung): 42.1 µM | TGI (OVCAR-4 ovarian): 19.9 µM | TGI (PC-3 prostate): 28 µM | TGI (T-47D breast): 30.7 µM

NC(Cc1ccccc1)c1nn[nH]n1 (stereo unspecified)
TGI (A498 renal): > 100 µM | TGI (CAKI-1 renal): > 100 µM | TGI (MDA-MB-231 breast): > 100 µM | TGI (MDA-MB-435): > 100 µM | TGI (NCI-H226 lung): > 100 µM | TGI (OVCAR-4 ovarian): > 100 µM | TGI (PC-3 prostate): > 100 µM | TGI (T-47D breast): > 100 µM

C#C[C@]1(O)[C@@H](CO)O[C@@H](n2ccc(N)nc2=O)[C@@H]1O
TGI (A498 renal): 0.54 µM | TGI (CAKI-1 renal): 0.122 µM | TGI (HCC-2998 colon): 0.196 µM | TGI (MDA-MB-231 breast): > 100 µM | TGI (MDA-MB-435): 0.219 µM | TGI (NCI-H226 lung): 3.66 µM | TGI (OVCAR-4 ovarian): 5.33 µM | TGI (PC-3 prostate): 0.762 µM
